According to patent publication US20240166652A1, “MODULATORS OF THE INTEGRATED STRESS PATHWAY” (Calico Life Sciences LLC, priority 2017, published 2024):

test system: ATF4 luciferase reporter in HEK293T cells; assay: ATF4-Luc assay (ATF4 luciferase reporter, tunicamycin-treated HEK293T cells); type: cell-based, human; settings: Homo sapiens, HEK-293T; HEK293T cells carrying the ATF4 luciferase reporter, 1 μg/mL tunicamycin, 7 hours

**Q.** With O=C(COc1ccc2c(c1)OC(F)(F)O2)NC12CCC(NC(=O)COc3ccc4c(c3)OC(F)(F)O4)(C1)C2 [Compound 391, N,N′-(bicyclo[2.1.1]hexane-1,4-diyl)bis{2-[(2,2-difluoro-2H-1,3-benzodioxol-5-yl)oxy]acetamide}] as the compound, how does the EC50 read?
**A.** 250 to 500 nM

**Q.** Which EC50 does the source give for O=C(COc1ccc(Cl)cc1)NC12CCC(NC(=O)COc3ccc(Cl)cc3)(CC1)C2 [Compound 527, N,N′-(bicyclo[2.2.1]heptane-1,4-diyl)bis[2-(4-chlorophenoxy)acetamide]] here?
**A.** 10 to 50 nM

**Q.** COc1ncc(OCC(=O)NC23CCC(NC(=O)COc4ccc(F)c(F)c4)(CC2)[C@@H](O)C3)cn1 [Compound 634, 2-(3,4-difluorophenoxy)-N-[(2S)-2-hydroxy-4-{2-[(2-methoxypyrimidin-5-yl)oxy]acetamido}bicyclo[2.2.2]octan-1-yl]acetamide] was tested. Which EC50 did it give?
**A.** 50 to 250 nM

**Q.** With O=C(COc1ccc(Cl)c(F)c1)NC12CCC(NC(=O)COc3ccc(C(F)(F)F)nc3)(CC1)C(F)C2 (single isomer, unassigned) [Compound 372] as the compound, how does the EC50 read?
**A.** 50 to 250 nM

**Q.** With Cc1noc(C)c1-c1cc(OCC(=O)NC23CC(NC(=O)COc4ccc(Cl)c(F)c4)(C2)C3)ccc1Cl [Compound 261, 2-[4-chloro-3-(3,5-dimethyl-1,2-oxazol-4-yl)phenoxy]-N-{3-[2-(4-chloro-3-fluorophenoxy)acetamido]bicyclo[1.1.1]pentan-1-yl}acetamide] as the compound, how does the EC50 read?
**A.** 10 to 50 nM

**Q.** Which EC50 does the source give for O=C(CNC(=O)c1ccccc1)NC12CC(NC(=O)COc3ccc(Cl)c(F)c3)(C1)C2 [Compound 492, N-[2-({3-[2-(4-chloro-3-fluorophenoxy)acetamido]bicyclo[1.1.1]pentan-1-yl}amino)-2-oxoethyl]benzamide] here?
**A.** > 2000 nM

**Q.** O=C(CCn1ncc(Cl)cc1=O)NC12CC(NC(=O)COc3ccc(Cl)c(F)c3)(C1)C2 [Compound 104, N-{3-[2-(4-chloro-3-fluorophenoxy)acetamido]bicyclo[1.1.1]pentan-1-yl}-3-(4-chloro-6-oxopyridazin-1(6H)-yl)propanamide] was tested. Which EC50 did it give?
**A.** 250 to 500 nM

**Q.** With O=C(COc1ccc(Cl)c(F)c1)NC12CCC(NC(=O)COc3ccc(C4CC4)nc3)(CC1)C(O)C2 (centres unmarked) [Compound 311, 2-(4-chloro-3-fluorophenoxy)-N-(4-{2-[(6-cyclopropylpyridin-3-yl)oxy]acetamido}-3-hydroxybicyclo[2.2.2]octan-1-yl)acetamide] as the compound, how does the EC50 read?
**A.** < 10 nM

**Q.** For O=C(COc1ccc(OC(F)(F)F)c(F)c1)NC12CCC(NC(=O)COc3ccc(Cl)cc3)(CC1)[C@@H](O)C2 [Compound 759, 2-(4-chlorophenoxy)-N-[(2S)-4-{2-[3-fluoro-4-(trifluoromethoxy)phenoxy]acetamido}-2-hydroxybicyclo[2.2.2]octan-1-yl]acetamide], which EC50 is on record?
**A.** < 10 nM

**Q.** Which EC50 does the source give for CC(C)c1ccc(OCC(=O)NC23CC(NC(=O)COc4ccc(Cl)c(F)c4)(C2)C3)cn1 [Compound 248, 2-(4-chloro-3-fluorophenoxy)-N-[3-(2-{[6-(propan-2-yl)pyridin-3-yl]oxy}acetamido)bicyclo[1.1.1]pentan-1-yl]acetamide] here?
**A.** 50 to 250 nM

**Q.** With O=C(COc1ccc(Cl)c(Cl)c1)NC12CCC(NC(=O)COc3ccc(Cl)c(F)c3)(CC1)[C@@H](O)C2 [Compound 438, 2-(4-chloro-3-fluorophenoxy)-N-{(2S)-4-[2-(3,4-dichlorophenoxy)acetamido]-2-hydroxybicyclo[2.2.2]octan-1-yl}acetamide] as the compound, how does the EC50 read?
**A.** < 10 nM

**Q.** For O=C(COc1ccc(Cl)c(F)c1)NC12CCC(NC(=O)COc3ccc(Cl)c(F)c3)(CC1)C(CCO)C2 (centres unmarked) [Compound 643, N,N′-[2-(2-hydroxyethyl)bicyclo[2.2.2]octane-1,4-diyl]bis[2-(4-chloro-3-fluorophenoxy)acetamide]], which EC50 is on record?
**A.** < 10 nM

**Q.** With O=C(COc1ccc(Cl)c(F)c1)NC12CC(NC(=O)COc3ccnn3C3CC3)(C1)C2 [Compound 371, 2-(4-chloro-3-fluorophenoxy)-N-(3-{2-[(1-cyclopropyl-1H-pyrazol-5-yl)oxy]acetamido}bicyclo[1.1.1]pentan-1-yl)acetamide] as the compound, how does the EC50 read?
**A.** 250 to 500 nM

**Q.** How did the EC50 turn out when O=C(COc1ccc(F)c(C(F)(F)F)c1)NC12CCC(NC(=O)COc3ccc(C(F)(F)F)c(F)c3)(CC1)[C@@H](O)C2 [Compound 822, 2-[3-fluoro-4-(trifluoromethyl)phenoxy]-N-[(2S)-4-{2-[4-fluoro-3-(trifluoromethyl)phenoxy]acetamido}-2-hydroxybicyclo[2.2.2]octan-1-yl]acetamide] was run?
**A.** < 10 nM

**Q.** For O=C(COc1ccc(OC(F)(F)F)cc1)NC12CCC(NC(=O)COc3ccc(Cl)c(F)c3)(CC1)[C@@H](O)C2 [Compound 473, 2-(4-chloro-3-fluorophenoxy)-N-[(2S)-2-hydroxy-4-{2-[4-(trifluoromethoxy)phenoxy]acetamido}bicyclo[2.2.2]octan-1-yl]acetamide], which EC50 is on record?
**A.** < 10 nM

**Q.** How did the EC50 turn out when O=C(COc1ccc(Cl)c(F)c1)NC12CCC(NCCOc3ccc(F)cc3)(CC1)C(O)C2 (centres unmarked) [Compound 331, 2-(4-chloro-3-fluorophenoxy)-N-(4-{[2-(4-fluorophenoxy)ethyl]amino}-3-hydroxybicyclo[2.2.2]octan-1-yl)acetamide] was run?
**A.** < 10 nM

**Q.** Which EC50 does the source give for COc1ccc(OCC(=O)NC23CC(NC(=O)COc4ccc(Cl)c(F)c4)(C2)C3)cn1 [Compound 241, 2-(4-chloro-3-fluorophenoxy)-N-(3-{2-[(6-methoxypyridin-3-yl)oxy]acetamido}bicyclo[1.1.1]pentan-1-yl)acetamide] here?
**A.** 10 to 50 nM

**Q.** Which EC50 does the source give for O=C(COc1ccc(Cl)c(F)c1)NC12CC(NC(=O)COc3cnc(C(F)(F)F)cn3)(C1)C2 [Compound 107, 2-(4-chloro-3-fluorophenoxy)-N-[3-(2-{[5-(trifluoromethyl)pyrazin-2-yl]oxy}acetamido)bicyclo[1.1.1]pentan-1-yl]acetamide] here?
**A.** 50 to 250 nM

**Q.** For COc1ncc(OCC(=O)NC23CC(NC(=O)COc4ccc(Cl)c(F)c4)(C2)C3)cc1C [Compound 253, 2-(4-chloro-3-fluorophenoxy)-N-(3-{2-[(6-methoxy-5-methylpyridin-3-yl)oxy]acetamido}bicyclo[1.1.1]pentan-1-yl)acetamide], which EC50 is on record?
**A.** 10 to 50 nM

**Q.** How did the EC50 turn out when Cc1ccc(OCC(=O)NC23CCC(NC(=O)COc4ccc(F)c(F)c4)(CC2)[C@@H](O)C3)cc1 [Compound 788, 2-(3,4-difluorophenoxy)-N-{(2S)-2-hydroxy-4-[2-(4-methylphenoxy)acetamido]bicyclo[2.2.2]octan-1-yl}acetamide] was run?
**A.** < 10 nM

**Q.** Which EC50 does the source give for O=C(COc1ccc(Cl)cc1)NC12CCC(NC(=O)COc3ccc(C(F)(F)F)c(F)c3)(CC1)[C@@H](O)C2 [Compound 834, 2-(4-chlorophenoxy)-N-[(3S)-4-{2-[3-fluoro-4-(trifluoromethyl)phenoxy]acetamido}-3-hydroxybicyclo[2.2.2]octan-1-yl]acetamide] here?
**A.** < 10 nM

**Q.** For O=C(COc1ccc(Cl)c(F)c1)NC12CC(NC(=O)Cc3cccc(C(F)(F)F)c3)(C1)C2 [Compound 457, 2-(4-chloro-3-fluorophenoxy)-N-(3-{2-[3-(trifluoromethyl)phenyl]acetamido}bicyclo[1.1.1]pentan-1-yl)acetamide], which EC50 is on record?
**A.** > 2000 nM

**Q.** Which EC50 does the source give for COc1ncc(OCC(=O)NC23CCC(NC(=O)COc4ccc(C(F)(F)F)c(F)c4)(CC2)[C@@H](O)C3)cn1 [Compound 633, 2-[3-fluoro-4-(trifluoromethyl)phenoxy]-N-[(2S)-2-hydroxy-4-{2-[(2-methoxypyrimidin-5-yl)oxy]acetamido}bicyclo[2.2.2]octan-1-yl]acetamide] here?
**A.** 10 to 50 nM

**Q.** For CN1C(=O)C2(NC(=O)COc3ccc(Cl)c(F)c3)CCC1(NC(=O)COc1ccc(Cl)c(F)c1)CC2 [Compound 605, N,N′-(2-methyl-3-oxo-2-azabicyclo[2.2.2]octane-1,4-diyl)bis[2-(4-chloro-3-fluorophenoxy)acetamide]], which EC50 is on record?
**A.** 50 to 250 nM

**Q.** For O=C(COc1ccc(C(F)(F)F)nc1)NC12CC(NC(=O)COc3ccc4c(c3)OC(F)(F)O4)(C1)C2 [Compound 266, 2-[(2,2-difluoro-2H-1,3-benzodioxol-5-yl)oxy]-N-[3-(2-{[6-(trifluoromethyl)-pyridin-3-yl]oxy}acetamido)bicyclo[1.1.1]pentan-1-yl]acetamide], which EC50 is on record?
**A.** < 10 nM

**Q.** With NC(=O)C1CC2(NC(=O)COc3ccc(Cl)c(F)c3)CCC1(NC(=O)COc1ccc(Cl)c(F)c1)CC2 (centres unmarked) [Compound 441, 1,4-bis[2-(4-chloro-3-fluorophenoxy)acetamido]bicyclo[2.2.2]octane-2-carboxamide] as the compound, how does the EC50 read?
**A.** 10 to 50 nM

**Q.** O=C(COc1ccc(Cl)c(F)c1)NC12CCC(NC(=O)COc3ccc(Cl)c(F)c3)(CC1)C(O)C2O (centres unmarked) [Compound 548, N,N′-(2,3-dihydroxybicyclo[2.2.2]octane-1,4-diyl)bis[2-(4-chloro-3-fluorophenoxy)acetamide]] was tested. Which EC50 did it give?
**A.** < 10 nM

**Q.** Which EC50 does the source give for O=C(COc1ccc(Cl)c(F)c1)NC1CCC2(NC(=O)COc3ccc(Cl)c(F)c3)CCC1C2 (centres unmarked) [Compound 573, N,N′-(bicyclo[3.2.1]octane-1,4-diyl)bis[2-(4-chloro-3-fluorophenoxy)acetamide]] here?
**A.** < 10 nM

**Q.** How did the EC50 turn out when O=C(COc1ccc(Cl)c(F)c1)NC12CC(NS(=O)(=O)Cc3ccccc3)(C1)C2 [Compound 479, 2-(4-chloro-3-fluorophenoxy)-N-{3-[(phenylmethanesulfonyl)amino]bicyclo[1.1.1]pentan-1-yl]acetamide] was run?
**A.** > 2000 nM

**Q.** With O=C(COc1cncc(C(F)(F)F)c1)NC12CCC(NC(=O)COc3ccc(Cl)c(F)c3)(C1)C2 [Compound 355, 2-(4-chloro-3-fluorophenoxy)-N-[4-(2-{[5-(trifluoromethyl)pyridin-3-yl]oxy}acetamido)bicyclo[2.1.1]hexan-1-yl]acetamide] as the compound, how does the EC50 read?
**A.** 50 to 250 nM

**Q.** How did the EC50 turn out when O=C(COc1ccc(Cl)c(F)c1)NC12CCC(NC(=O)COc3ccc(Cl)c(Cl)c3)(CC1)C(=O)N2 [Compound 601, 2-(4-chloro-3-fluorophenoxy)-N-{4-[2-(3,4-dichlorophenoxy)acetamido]-3-oxo-2-azabicyclo[2.2.2]octan-1-yl}acetamide] was run?
**A.** < 10 nM

**Q.** With O=C(COc1ccc(Cl)c(F)c1)NC12CCC(NC(=O)COc3ccc(Cl)c(F)c3)(CC1)C(CO)C2 (centres unmarked) [Compound 568, N,N′-[2-(hydroxymethyl)bicyclo[2.2.2]octane-1,4-diyl]bis[2-(4-chloro-3-fluorophenoxy)acetamide]] as the compound, how does the EC50 read?
**A.** < 10 nM
